Reference: EP0167553B1, “NEW THERAPEUTICAL APPLICATION OF AN INDANE DIONE DERIVATIVE AND PHARMACEUTICAL COMPOSITIONS INTENDED TO SAID UTILIZATION” (priority 1983, dated 1985)

Test system: Rat Wistar
Assay: Hyperlipidaemia induced by Triton WR 1339 injection
Type: in vivo
Set-up: Triglycérides, score par rapport au Procétofène 250 mg/kg: scale not given here
Description: L'hyperlipidémie par injection de Triton WR 1339 (marque de fabrique), réalisée chez le Rat Wistar, est antagonisée ou diminuée par l'administration d'agents hypolipémiants.
• - Rats Wistar mâles. • - Poids corporel: 150 -180 grammes. • - Animaux E.O.P.S. (Exempts d'Organisme Pathogène Spécifique). • - Alimentation UAR A04 • - Eau de boisson à volonté • - 6 animaux par lot de traitement et par cage MAKROLON SAFI (marque de fabrique) 60 X 40 cm, sur litière de copeaux de bois dépoussiérés • - Cages placées dans un module animalerie climatisé (19 à 21°C) à degré hygrométrique constant (40 à 60 p.100), dans lequel l'air est renouvelé 10 fois par heure, 12 heures d'éclairement par jour.
• . - 18 h: mise à jeun. • . Temps 0 - administration du Triton WR 1339® (400 mg/kg IP.). • . + 10 mn: administration du produit étudié. • - + 6 h: 1er prélèvement sanguin au sinus rétro-orbitaire. • . + 24 h: 2ème prélèvement sanguin au sinus rétro-orbitaire.
L'essai comporte 8 lots dont un lot témoin (animaux sains) et un lot témoin triton (Tableau I).

[1] = 125 mg/kg, 6 heures after Triton
[2] = 125 mg/kg, 24 heures after Triton
[3] = 250 mg/kg, 6 heures after Triton
[4] = 250 mg/kg, 24 heures after Triton
[5] = 500 mg/kg, 6 heures after Triton
[6] = 500 mg/kg, 24 heures after Triton
[7] = 750 mg/kg, 6 heures after Triton
[8] = 750 mg/kg, 24 heures after Triton

COc1ccc(C(=O)CC2(O)C(=O)c3ccccc3C2=O)cc1OC [Produit de l'invention, 2-[(3,4-dimethoxybenzoyl)methyl] 2-hydroxy 1,3-dioxo indane]
Chol. Total, score par rapport au Procétofène 250 mg/kg [1]: 2.44 | Score Total par rapport au Procétofène 250 mg/kg [1]: 2.75 | Triglycérides, score par rapport au Procétofène 250 mg/kg [1]: 0.31 | Chol. HDL/ LDL, score par rapport au Procétofène 250 mg/kg [2]: 1.40 | Chol. Total, score par rapport au Procétofène 250 mg/kg [2]: 0.28 | Score Total par rapport au Procétofène 250 mg/kg [2]: 1.94 | Triglycérides, score par rapport au Procétofène 250 mg/kg [2]: 0.26 | Chol. HDL/ LDL, score par rapport au Procétofène 250 mg/kg [3]: 0.87 | Chol. Total, score par rapport au Procétofène 250 mg/kg [3]: 1.15 | Lipides Totaux, score par rapport au Procétofène 250 mg/kg [3]: 0.92 | Score Total par rapport au Procétofène 250 mg/kg [3]: 3.74 | Triglycérides, score par rapport au Procétofène 250 mg/kg [3]: 0.80 | Chol. HDL/ LDL, score par rapport au Procétofène 250 mg/kg [4]: 1.10 | Chol. Total, score par rapport au Procétofène 250 mg/kg [4]: 1.13 | Lipides Total, score par rapport au Procétofène 250 mg/kg [4]: 1.56 | Score Total par rapport au Procétofène 250 mg/kg [4]: 4.64 | Triglycérides, score par rapport au Procétofène 250 mg/kg [4]: 0.85 | Chol. HDL/ LDL, score par rapport au Procétofène 250 mg/kg [5]: 2.00 | Chol. Total, score par rapport au Procétofène 250 mg/kg [5]: 0.35 | Lipides Totaux, score par rapport au Procétofène 250 mg/kg [5]: 1.00 | Score Total par rapport au Procétofène 250 mg/kg [5]: 4.95 | Triglycérides, score par rapport au Procétofène 250 mg/kg [5]: 1.60 | Chol. HDL/ LDL, score par rapport au Procétofène 250 mg/kg [6]: 0.80 | Chol. Total, score par rapport au Procétofène 250 mg/kg [6]: 0.75 | Lipides Total, score par rapport au Procétofène 250 mg/kg [6]: 1.62 | Score Total par rapport au Procétofène 250 mg/kg [6]: 3.66 | Triglycérides, score par rapport au Procétofène 250 mg/kg [6]: 0.49 | Chol. Total, score par rapport au Procétofène 250 mg/kg [7]: 0.78 | Lipides Totaux, score par rapport au Procétofène 250 mg/kg [7]: 0.14 | Score Total par rapport au Procétofène 250 mg/kg [7]: 1.72 | Triglycérides, score par rapport au Procétofène 250 mg/kg [7]: 0.80 | Chol. HDL/ LDL, score par rapport au Procétofène 250 mg/kg [8]: 0.40 | Chol. Total, score par rapport au Procétofène 250 mg/kg [8]: 0.61 | Score Total par rapport au Procétofène 250 mg/kg [8]: 1.73 | Triglycérides, score par rapport au Procétofène 250 mg/kg [8]: 0.72 | hyperlipémie provoquée par le Triton WR 1339 (dès la dose de 125 mg/kg par voie orale, Rat): antagonisée au diminuée
